Columns and labels:
[1] = test system: healthy subjects; settings: oral doses in the range of 100-2800 mg; cited from earlier work
[2] = Masking effect on Reb M, trained panel; parameters: species or system human; settings: base Reb M 200 ppm in water, test sample 0.5 ppm; for Masking Intensity: panel average, scale 0-5
From the text: (§1) Preparation of Test Samples: […], oroxylin A-7 glucouronide, wogonoside, baicalein, oroxylin A and wogonin were purchased commercially. S. baicalensis extract (“Extract”) and cabohydrase-treated S. baicalensis extract (“Treated Extract”) were obtained as above in Example 1.
(§2) Subsequently, all compounds and extracts were applied to different bases for evaluating their off-taste masking functions.
(§3) Testing Procedure: The masking effects on the off-tastes (bitterness, sourness, astringency, lingering and drying aftertaste, etc.) associated with various food components was evaluated by a group of 16 trained panelist. Each provided a rank of masking intensity using the intensity scales of 0 to 5, where 0 represents “no masking effect,” 1 represents “minimal masking intensity” and 5 represents “the most masking intensity.” The average of the reported making intensity is presented in the following examples.
A base solution of Reb M was prepared in water (200 ppm). […] The flavor profile of the Reb M solutions with compounds or extracts were further evaluated and is reported in the following: […]

[3] = Masking effect on Reb A, trained panel; parameters: species or system human; settings: base Reb A 200 ppm in water; for Masking Intensity: panel average, scale 0-5
From the text: as §1, §2, §3
A base solution of Reb A was prepared in water (200 ppm). […] The flavor profile of the Reb A solutions with compounds or extracts were further evaluated and is reported in the following: […]

[4] = Masking effect on pea protein, trained panel; parameters: species or system human; settings: base TRUPRO pea protein 5% in water, test sample 0.5 ppm; for Masking Intensity: panel average, scale 0-5
From the text: as §1, §2, §3
A base solution of TRUPRO® pea protein (Solae LLC) was prepared in water (5%). […] The flavor profile of the pea protein solutions with compounds or extracts were further evaluated and is reported in the following: […]

[5] = Masking effect on sorbic acid, trained panel; parameters: species or system human; settings: base sorbic acid 150 ppm in water; for Masking Intensity: panel average, scale 0-5
From the text: as §1, §2, §3
A base solution of sorbic acid was prepared in water (150 ppm). […] The flavor profile of the sorbic acid solutions with compounds or extracts were further evaluated and is reported in the following: […]

[6] = Taste modulating activity of the individual compounds; settings: for taste modulating activity: individual compounds, Example 1; for taste modulation effect: flavone aglycones versus corresponding flavone glycosides
Procedure: With bio-transformation, most baicalin was converted to baicalein; oroxylin A glucuronide was converted to oroxylin A; and wogonoside was converted to wogonin. The activity of the individual compounds was also analyzed for taste modulating activity.

[7] = Masking effect on citric acid, trained panel; parameters: species or system human; settings: base citric acid 300 ppm in water; for Masking Intensity: panel average, scale 0-5
From the text: as §1, §2, §3
A base solution of citric acid was prepared in water (300 ppm). […] The flavor profile of the citric acid solutions with compounds or extracts were further evaluated and is reported in the following: […]

[8] = Masking effect on benzoic acid, trained panel; parameters: species or system human; settings: base benzoic acid 250 ppm in water; for Masking Intensity: panel average, scale 0-5
From the text: as §1, §2, §3
A base solution of benzoic acid was prepared in water (250 ppm). […] The flavor profile of the benzoic acid solutions with compounds or extracts was further evaluated and is reported in the following: […]

[9] = Masking effect on Acesulfame-K, trained panel; parameters: species or system human; settings: base Acesulfame-K 300 ppm in water; for Masking Intensity: panel average, scale 0-5
From the text: as §1, §2, §3
A base solution of Acesulfame-K was prepared in water (300 ppm). […] The flavor profile of the Acesulfame-K solutions with compounds or extracts were further evaluated and is reported in the following: […]

O=c1cc(-c2ccccc2)oc2cc(O)c(O)c(O)c12 [Baicalein, 5,6,7-trihydroxyflavone]
safety and tolerability [1]: safe and well-tolerated | Flavor Profile [2]: Slightly reduced bitterness and lingering | Masking Intensity [2]: 3 | Masking Intensity ([3]; test sample 0.5 ppm): 3 | Flavor Profile [4]: Reduced astringency and bitterness, less | Masking Intensity [4]: 3 | Masking Intensity ([5]; test sample 0.001 ppm): 0 | Masking Intensity ([5]; test sample 0.01 ppm): 1 | Masking Intensity ([5]; test sample 0.1 ppm): 2 | Masking Intensity ([5]; test sample 0.5 ppm): 3 | Flavor Profile ([5]; test sample 1 ppm): Reduced astringency, sourness, and drying | Masking Intensity ([5]; test sample 1 ppm): 4 | Flavor Profile ([5]; test sample 10 ppm): Reduced astringency, sourness, and drying | Masking Intensity ([5]; test sample 10 ppm): 4 | Flavor Profile ([5]; test sample 50 ppm): Reduced astringency, sourness, and drying | Masking Intensity ([5]; test sample 50 ppm): 3 | taste modulating activity [6]: more active | Masking Intensity ([7]; test sample 0.01 ppm): 1 | Flavor Profile ([7]; test sample 0.1 ppm): Slightly reduced tart taste | Masking Intensity ([7]; test sample 0.1 ppm): 2 | Flavor Profile ([7]; test sample 0.5 ppm): Reduced tart taste | Masking Intensity ([7]; test sample 0.5 ppm): 3 | Flavor Profile ([7]; test sample 1 ppm): Reduced tart taste | Masking Intensity ([7]; test sample 1 ppm): 4 | Flavor Profile ([7]; test sample 10 ppm): Reduced tart taste, very slight bitterness | Masking Intensity ([7]; test sample 10 ppm): 3 | Flavor Profile ([7]; test sample 50 ppm): Reduced tart taste, noticeable bitterness | Masking Intensity ([7]; test sample 50 ppm): 2 | Masking Intensity ([8]; test sample 0.5 ppm): 3 | Flavor Profile ([9]; test sample 0.5 ppm): Slightly reduced bitterness and lingering | Masking Intensity ([9]; test sample 0.5 ppm): 2

O=C(O)C1OC(Oc2cc3oc(-c4ccccc4)cc(=O)c3c(O)c2O)C(O)C(O)C1O (centres unmarked) [Baicalin, 5,6-dihydroxy-7-O-glucuronide flavone, reference compound]
Masking Intensity [2]: 1 | Masking Intensity ([3]; test sample 0.5 ppm): 1 | Masking Intensity [4]: 1 | Masking Intensity ([5]; test sample 0.5 ppm): 1 | taste modulation effect [6]: weak taste modulation effect | taste modulating activity [6]: some activity | Masking Intensity ([7]; test sample 0.5 ppm): 1 | Masking Intensity ([8]; test sample 0.5 ppm): 1 | Masking Intensity ([9]; test sample 0.5 ppm): 1

COc1c(O)cc2oc(-c3ccccc3)cc(=O)c2c1O [Oroxylin A, 5,7-dihydroxy-6-methoxyflavone]
Flavor Profile [2]: Reduced bitterness and lingering aftertaste, | Masking Intensity [2]: 5 | Flavor Profile ([3]; test sample 0.01 ppm): Slightly reduced astringency, licorice flavor | Masking Intensity ([3]; test sample 0.01 ppm): 2 | Masking Intensity ([3]; test sample 0.1 ppm): 3 | Masking Intensity ([3]; test sample 0.5 ppm): 5 | Masking Intensity ([3]; test sample 10 ppm): 4 | Masking Intensity ([3]; test sample 50 ppm): 2 | Flavor Profile [4]: Reduced astringency and bitterness, less | Masking Intensity [4]: 4 | Flavor Profile ([5]; test sample 0.5 ppm): Reduced astringency, sourness, and drying | Masking Intensity ([5]; test sample 0.5 ppm): 4 | taste modulating activity [6]: more active | Flavor Profile ([7]; test sample 0.5 ppm): Reduced tart taste, more pleasant | Masking Intensity ([7]; test sample 0.5 ppm): 5 | Masking Intensity ([8]; test sample 0.001 ppm): 0 | Masking Intensity ([8]; test sample 0.01 ppm): 1 | Masking Intensity ([8]; test sample 0.1 ppm): 3 | Flavor Profile ([8]; test sample 0.5 ppm): Reduced astringency, sourness, and drying | Masking Intensity ([8]; test sample 0.5 ppm): 4 | Flavor Profile ([8]; test sample 1 ppm): Reduced astringency, sourness, and drying | Masking Intensity ([8]; test sample 1 ppm): 5 | Flavor Profile ([8]; test sample 10 ppm): Reduced astringency, sourness, and drying | Masking Intensity ([8]; test sample 10 ppm): 4 | Flavor Profile ([8]; test sample 50 ppm): Reduced astringency, sourness, and drying | Masking Intensity ([8]; test sample 50 ppm): 3 | Masking Intensity ([9]; test sample 0.01 ppm): 1 | Flavor Profile ([9]; test sample 0.1 ppm): Reduced bitterness and lingering aftertaste | Masking Intensity ([9]; test sample 0.1 ppm): 3 | Flavor Profile ([9]; test sample 0.5 ppm): Reduced bitterness and lingering aftertaste, | Masking Intensity ([9]; test sample 0.5 ppm): 5 | Flavor Profile ([9]; test sample 10 ppm): Reduced lingering aftertaste, very slight | Masking Intensity ([9]; test sample 10 ppm): 4 | Flavor Profile ([9]; test sample 50 ppm): Reduced lingering aftertaste, noticeable | Masking Intensity ([9]; test sample 50 ppm): 2

COc1c(OC2OC(C(=O)O)C(O)C(O)C2O)cc2oc(-c3ccccc3)cc(=O)c2c1O [Oroxylin A-7 glucuronide, 5,7-dihydroxy-6-methoxyflavone-7-O-β-D-glucuronopyranoside, reference compound]
Flavor Profile [2]: Slightly reduced bitterness and lingering | Masking Intensity [2]: 2 | Flavor Profile ([3]; test sample 0.5 ppm): Slightly reduced astringency, licorice flavor | Masking Intensity ([3]; test sample 0.5 ppm): 1 | Masking Intensity [4]: 1 | Flavor Profile ([5]; test sample 0.5 ppm): Slightly reduced drying aftertaste | Masking Intensity ([5]; test sample 0.5 ppm): 2 | taste modulation effect [6]: weak taste modulation effect | taste modulating activity [6]: some activity | Masking Intensity ([7]; test sample 0.5 ppm): 1 | Masking Intensity ([8]; test sample 0.5 ppm): 1 | Masking Intensity ([9]; test sample 0.5 ppm): 1

COc1c(OC2OC(C(=O)O)C(O)C(O)C2O)cc(O)c2c(=O)cc(-c3ccccc3)oc12 [Wogonoside, wogonin 7-O-β-D-glucuronide, reference compound]
Masking Intensity [2]: 1 | Flavor Profile ([3]; test sample 0.5 ppm): Slightly reduced astringency, licorice flavor | Masking Intensity ([3]; test sample 0.5 ppm): 1 | Flavor Profile [4]: Slightly reduced astringency and bitterness, | Masking Intensity [4]: 2 | Masking Intensity ([5]; test sample 0.5 ppm): 2 | taste modulation effect [6]: weak taste modulation effect | taste modulating activity [6]: some activity | Masking Intensity ([7]; test sample 0.5 ppm): 1 | Masking Intensity ([8]; test sample 0.5 ppm): 1 | Masking Intensity ([9]; test sample 0.5 ppm): 1

Reference: patent US20250241347A1, “COMPOSITIONS AND METHODS FOR TASTE MODULATION” (INTERNATIONAL FLAVORS & FRAGRANCES INC., priority 2019, published 2025)
